Structures can show the parent of a compound that is named as a salt.
Assays:
[1] = system: Porcine Smooth Muscle Cell; assay: Effects of compounds on cell proliferation using 3H thymidine incorporation; type: cell-based; conditions: for IC50: serum/growth factor stimulated cells, 3H thymidine incorporation, 24-36 h, read-out: Porcine Smooth Muscle Cell Antiproliferation IC50
Procedure: The compounds of this invention are useful as antiproliferative agents. The following procedures show the evaluation of representative compounds of this invention in standard pharmacological test procedure which measured ability of the evaluated compound to inhibit smooth muscle cell proliferation
Effects of Compounds On Cell Proliferation Using ^3H Thymidine Incorporation
Human and porcine smooth muscle cells were tested in early passage (generally passage 3-7) at sub-confluent conditions. Cultures were grown in 16 mm (24 well) multi-well culture dishes in medium 199 supplemented with 10% fetal bovine serum and 2% antibiotic/antimycotic. At sub-confluence, the cells were placed in a defined serum free medium (AIM-V; Gibco) for 24-48 h prior to initiating the experimental protocol.
Compounds were added to each well at 50 fold dilution (20 μL/well) and the plates were incubated for 24-36 h at 37° C. in 5% CO2. Compounds were initially dissolved in 50% ethanol and serially diluted into media. Compounds were routinely evaluated at concentrations from 1 to 100 μM. As a control, grade II porcine intestinal mucosal heparin (sodium salt) was routinely evaluated in all cell preparations at concentrations from 0.1 to 100 μg/mL.
At the completion of the test procedure, plates were placed on ice, washed three times with ice cold phosphate buffered saline (PBS) and incubated in ice cold 10% trichloroacetic acid (TCA) got 30 min to remove acid soluble proteins. Solution was transferred to scintillation vials containing 0.4 N HCl (500 μL/vial to neutralize NaOH) and each well was rinsed two times with water (500 μL) for a total volume of 2 mL/vial.
Data was obtained, in triplicate, for both control and experimental samples. Control (100%) data was obtained from maximally stimulated cells, as the result of growth factor or serum stimulation. Experimental data was obtained from cells maximally stimulated with growth factor or serum and treated with compound. Data are expressed as an IC50 or percent inhibition in Table I below.

With `CC(=O)OC[C@H]1O[C@H](O[C@H]2[C@H](OC(C)=O)[C@@H](OC(C)=O)[C@H](OCc3ccc(Cl)c(NC(=O)[C@H](C)NC(=O)OCC4c5ccccc5-c5ccccc54)c3)O[C@@H]2COC(C)=O)[C@H](OC(C)=O)[C@@H](OC(C)=O)[C@@H]1OC(C)=O` [Example 3, N-{2-Chloro-5-[(2,2′,3,3′,4′,6,6′)-hepta-O-acetyl-β-D-maltosyl-oxymethyl]-phenyl}-(9H-fluoren-9-ylmethoxycarbonyl)-L-alaninamide] as the compound, how does the IC50 [1] read?
Its IC50 is 1.71 µM.

Which IC50 [1] does the source give for `O=C(OC[C@H]1O[C@H](O[C@H]2[C@H](O)[C@@H](O)[C@H](OCc3ccc(Cl)c([N+](=O)[O-])c3)O[C@@H]2COC(=O)c2cccnc2)[C@H](O)[C@@H](O)[C@@H]1O)c1cccnc1` [Example 14, (4-Chloro-3-nitrophenyl)methyl-4-O-[6-O-(3-pyridinylcarbonyl)-α-D-glucopyranosyl]-β-D-glucopyranoside-6-(3-pyridinecarboxylate)] here?
Its IC50 is 6.56 µM.

With `O=C(OC[C@H]1O[C@H](O[C@H]2[C@H](O)[C@@H](O)[C@H](OCc3ccc(Cl)c([N+](=O)[O-])c3)O[C@@H]2CO)[C@H](O)[C@@H](O)[C@@H]1O)c1cccnc1` [Example 15, (4-Chloro-3-nitrophenyl)methyl-4-O-[6-O-(3-pyridinylcarbonyl)-α-D-glucopyranosyl]-β-D-glucopyranoside] as the compound, how does the IC50 [1] read?
The IC50 was 73.2 µM.

For `Cc1ccc(S(=O)(=O)OC[C@H]2O[C@H](O[C@H]3[C@H](O)[C@@H](O)[C@H](OCc4ccc(C)c([N+](=O)[O-])c4)O[C@@H]3COS(=O)(=O)c3ccc(C)cc3)[C@H](O)[C@@H](O)[C@@H]2O)cc1` [Example 20, 5-{[6,6′-Bis-O-(4-toluenesulfonyl)-β-maltosyl]-oxy-methyl}-2-methyl-1-nitrobenzene], which IC50 [1] is on record?
The IC50 was 0.74 µM.

For `CC(=O)O[C@@H]1[C@@H](OC(C)=O)[C@@H](O[C@H]2[C@H](OC(C)=O)[C@@H](OC(C)=O)[C@H](OCc3ccc(C)c([N+](=O)[O-])c3)O[C@@H]2COS(=O)(=O)c2ccc(C)cc2)O[C@H](COS(=O)(=O)c2ccc(C)cc2)[C@H]1OC(C)=O` [Example 21, 5-{[2,2′,3,3′,4′-Penta-O-acetyl-6,6′-bis-O-(4-toluenesulfonyl)-β-maltosyl]-oxy-methyl}-2-methyl-1-nitrobenzene], which IC50 [1] is on record?
The IC50 was 67.4 µM.

Which IC50 [1] does the source give for `CC(=O)Nc1cc(CO[C@@H]2O[C@H](COC(=O)c3ccccc3)[C@@H](O[C@H]3O[C@H](COC(=O)c4ccccc4)[C@@H](O)[C@H](O)[C@H]3O)[C@H](O)[C@H]2O)ccc1Cl` [Example 12, N-{2-Chloro-5-[([6,6′-di-O-benzoyl-β-D-maltosyl]oxy)methyl]phenyl}-acetamide] here?
The IC50 was 0.39 to 2.2 µM.

For `O=C(Nc1cc(COC2OC(COC(=O)c3ccccc3)C(OC3OC(CO)C(O)C(O)C3O)C(O)C2O)ccc1Cl)c1cccnc1` (stereo not drawn) [Example 17, Benzoic acid 6-{4-chloro-3-[(pyridine-3-carbonyl)-amino]-benzyloxy}-4,5-dihydoxy-3-(3,4,5-trihydroxy-6-hydroxymethyl-tetrahydro-pyran-2-yloxy)-tetrahydro-pyran-2-ylmethyl ester hydrochloride], which IC50 [1] is on record?
The IC50 was 0.245 µM.

With `CC(=O)Nc1cc(CO[C@@H]2O[C@H](CO[Si](C)(C)C(C)(C)C)[C@@H](O[C@H]3O[C@H](CO[Si](C)(C)C(C)(C)C)[C@@H](O)[C@H](O)[C@H]3O)[C@H](O)[C@H]2O)ccc1Cl` [Example 11, N-{2-Chloro-5-[6,6′-di-O-(tert-butyl-dimethyl-silvl)-β-D-maltosyloxy-methyl]-phenyl}-acetamide] as the compound, how does the IC50 [1] read?
The IC50 was 3.9 µM.

For `CC(=O)OC[C@H]1O[C@H](O[C@H]2[C@H](OC(C)=O)[C@@H](OC(C)=O)[C@H](OCc3ccc(Cl)c([N+](=O)[O-])c3)O[C@@H]2COC(C)=O)[C@H](OC(C)=O)[C@@H](OC(C)=O)[C@@H]1OC(C)=O` [Example 1, 4-Chloro-3-nitro-benzyl-β-D-maltoside heptaacetate], which IC50 [1] is on record?
Its IC50 is 0.85 µM.

For `CC(=O)Nc1cc(COC2OC(CO)C(OC3OC(CO)C(O)C(O)C3O)C(O)C2O)ccc1Cl` [Example 9, N-[2-Chloro-5-(β-D-maltosyl-oxymethyl)-phenyl]-acetamide], which “Porcine Smooth Muscle Cell Antiproliferation percent inhibition” value ([1]; @ 500 μM) is on record?
Its value is 0% @ 500.

For `O=[N+]([O-])c1cc(CS[C@@H]2O[C@H](CO)[C@@H](O[C@H]3O[C@H](CO)[C@@H](O)[C@H](O)[C@H]3O)[C@H](O)[C@H]2O)ccc1Cl` [Example 18, (4-Chloro-3-nitro-benzyl)-1-deoxy-1-thio-β-D-maltoside], which “Porcine Smooth Muscle Cell Antiproliferation percent inhibition” value ([1]; @ 50 μM) is on record?
Its value is 25% @ 50.

With `O=C(Nc1cc(CO[C@@H]2O[C@H](CO)[C@@H](O[C@H]3O[C@H](CO)[C@@H](O)[C@H](O)[C@H]3O)[C@H](O)[C@H]2O)ccc1Cl)c1cccnc1` [Example 16, N-[2-Chloro-5-[[(4-O-α-D-glucopyranosyl-β-D-glucopyranosyl)oxy]methyl]phenyl]-3-pyridinecarboxamide] as the compound, how does the melting point read?
Its melting point is > 106 °C (dec.).

And the inhibition at 50 µM ([1]; Sus scrofa, @ 50 μM, read-out: Porcine Smooth Muscle Cell Antiproliferation percent inhibition)?
The inhibition at 50 µM was 18%.

For `CC(=O)Nc1cc(CO[C@@H]2O[C@H](COC(=O)c3ccccc3)[C@@H](O[C@H]3O[C@H](COC(=O)c4ccccc4)[C@@H](OC(C)=O)[C@H](OC(C)=O)[C@H]3OC(C)=O)[C@H](OC(C)=O)[C@H]2OC(C)=O)ccc1Cl` [Example 13, N-{2-Chloro-5-[([6,6′-di-O-benzoyl-2,2′,3,3′,4′-penta-acetyl-β-D-maltosyl]oxy)methyl]phenyl}-acetamide], which IC50 [1] is on record?
Its IC50 is 0.36 µM.

With `CC(=O)Nc1cc(CO[C@@H]2O[C@H](CO[Si](C)(C)C(C)(C)C)[C@@H](O[C@H]3O[C@H](CO[Si](C)(C)C(C)(C)C)[C@@H](O)[C@H](O)[C@H]3O)[C@H](O)[C@H]2O)ccc1C` [Example 10, N-{5-[6,6′-Di-O-(tert-butyl-dimethyl-silyl)-β-D-maltosyloxy-methyl]-2-methyl-phenyl}-acetamide] as the compound, how does the IC50 [1] read?
The IC50 was 6.1 µM.

With `CC(=O)OC[C@H]1O[C@H](O[C@H]2[C@H](OC(C)=O)[C@@H](OC(C)=O)[C@H](OCc3ccc(C#N)c([N+](=O)[O-])c3)O[C@@H]2COC(C)=O)[C@H](OC(C)=O)[C@@H](OC(C)=O)[C@@H]1OC(C)=O` [Example 8, 5-[(Hepta-O-acetyl-β-D-maltosyl)-oxy-methyl]-2-cyano-1-nitrobenzene] as the compound, how does the IC50 [1] read?
The IC50 was 2.05 µM.

Which “Porcine Smooth Muscle Cell Antiproliferation percent inhibition” value ([1]; @ 50 μM) does the source give for `CC(=O)Nc1cc(CSC2OC(CO)C(OC3OC(CO)C(O)C(O)C3O)C(O)C2O)ccc1Cl` (stereo not drawn) [Example 19] here?
The value was 28% @ 50.

Which IC50 [1] does the source give for `CC(=O)O[C@@H]1[C@@H](OC(C)=O)[C@@H](O[C@H]2[C@H](OC(C)=O)[C@@H](OC(C)=O)[C@H](OCc3ccc(C)c([N+](=O)[O-])c3)O[C@@H]2Cn2cnc([N+](=O)[O-])c2)O[C@H](Cn2cnc([N+](=O)[O-])c2)[C@H]1OC(C)=O` [Example 23, 5-{[2,2′,3,3′,4′-Penta-O-acetyl-6,6′-dideoxy-6,6′-bis(4-nitro-imidazol-1-yl)-β-maltosyl]-oxy-methyl}-2-methyl-1-nitrobenzene] here?
The IC50 was 4.7 µM.

Which IC50 [1] does the source give for `CC(=O)OC[C@H]1O[C@@H](SCc2ccc(Cl)c(N)c2)[C@H](OC(C)=O)[C@@H](OC(C)=O)[C@@H]1O[C@H]1O[C@H](COC(C)=O)[C@@H](OC(C)=O)[C@H](OC(C)=O)[C@H]1OC(C)=O` [Example 6, (3-Amino-4-chloro-benzyl) hepta-O-acetyl-1-thio-β-D-maltoside] here?
The IC50 was 0.667 µM.

For `CC(=O)OC[C@H]1O[C@@H](SCc2ccc(Cl)c([N+](=O)[O-])c2)[C@H](OC(C)=O)[C@@H](OC(C)=O)[C@@H]1O[C@H]1O[C@H](COC(C)=O)[C@@H](OC(C)=O)[C@H](OC(C)=O)[C@H]1OC(C)=O` [Example 5, (4-Chloro-3-nitro-benzyl)-hepta-O-acetyl-1-thio-β-D-maltoside], which IC50 [1] is on record?
Its IC50 is 1.14 µM.

For `CC(=O)Nc1cc(CS[C@@H]2O[C@H](COC(C)=O)[C@@H](O[C@H]3O[C@H](COC(C)=O)[C@@H](OC(C)=O)[C@H](OC(C)=O)[C@H]3OC(C)=O)[C@H](OC(C)=O)[C@H]2OC(C)=O)ccc1Cl` [Example 7], which IC50 [1] is on record?
Its IC50 is 7.97 µM.

With `CC(=O)OC[C@H]1O[C@H](O[C@H]2[C@H](OC(C)=O)[C@@H](OC(C)=O)[C@H](OCc3ccc(Cl)c(NC(=O)[C@@H](N)CC(=O)OC(C)(C)C)c3)O[C@@H]2COC(C)=O)[C@H](OC(C)=O)[C@@H](OC(C)=O)[C@@H]1OC(C)=O` [Example 2, N-{5-[(Hepta-O-acetyl-β-D-maltosyloxy)-methyl]-2-chloro-phenyl}-L-aspartamide-γ-tert-butyl ester] as the compound, how does the IC50 [1] read?
Its IC50 is 4.61 µM.

For `Cc1ccc(CO[C@@H]2O[C@H](Cn3cnc([N+](=O)[O-])c3)[C@@H](O[C@H]3O[C@H](Cn4cnc([N+](=O)[O-])c4)[C@@H](O)[C@H](O)[C@H]3O)[C@H](O)[C@H]2O)cc1[N+](=O)[O-]` [Example 22, 5-{[6,6′-Dideoxy-6,6′-bis(4-nitro-imidazol-1-yl)-β-maltosyl]-oxy-methyl}-2-methyl-1-nitrobenzene], which “Porcine Smooth Muscle Cell Antiproliferation percent inhibition” value ([1]; @ 100 μM) is on record?
The value was 23% @ 100.

Which IC50 [1] does the source give for `CC(=O)OC[C@H]1O[C@H](O[C@H]2[C@H](OC(C)=O)[C@@H](OC(C)=O)[C@H](OCc3ccc(Cl)c(NC(=O)c4ccc(C(=O)c5ccccc5)cc4)c3)O[C@@H]2COC(C)=O)[C@H](OC(C)=O)[C@@H](OC(C)=O)[C@@H]1OC(C)=O` [Example 4, 4-Benzoyl-N-{2-chloro-5-[(2,2′,3,3′,4′,6,6′-hepta-O-acetyl-β-D-maltosyl)-oxy-methyl]-phenyl}-benzamide] here?
The IC50 was 0.164 µM.

— patent US7514411B2, “Acylated benzylmaltosides as inhibitors of smooth muscle cell proliferation” (Wyeth, priority 1998, dated 2009)
